Legend:
[1] = refractive index (Na D-line) (dimensionless); settings: 101.33 kPa, Liquid, Standard Abbe refractometry
[2] = Liquid; for mass density: 101 kPa, Vibrating tube method; for vapor or sublimation pressure: Ebulliometric method (Recirculating still)
[3] = xn = mol fraction of the nth substance listed; settings: 101 kPa, Liquid, Vibrating tube method
[4] = excess molar enthalpy (molar enthalpy of mixing); xn = mol fraction of the nth substance listed; settings: 291.15 K, 101 kPa, Liquid, Calvet calorimetry

CCCCCCCCCC [decane]
Settings	mass density, 291.15 K [kg/m3]	mass density, 298.15 K [kg/m3]	mass density, 318.15 K [kg/m3]	mass density, 328.15 K [kg/m3]	refractive index, 298.15 K	refractive index, 318.15 K	vapor or sublimation pressure, 447.27 K [kPa]
[1]	–	–	–	–	1.4096	1.4008	–
[2]	731.2	726.2	710.9	703.3	–	–	101.32

CCCCCCCCCC [decane] + CCCOC(C)=O
[3], x2 = 0
Settings	mass density [kg/m3]
291.15 K	731.2
298.15 K	726.2
318.15 K	710.9
328.15 K	703.3

CCCCCCC [heptane]
Settings	mass density, 291.15 K [kg/m3]	mass density, 298.15 K [kg/m3]	mass density, 318.15 K [kg/m3]	mass density, 328.15 K [kg/m3]	refractive index, 298.15 K	refractive index, 318.15 K	vapor or sublimation pressure, 371.55 K [kPa]
[1]	–	–	–	–	1.3852	1.3748	–
[2]	685.3	679.5	662.1	653.7	–	–	101.32

CCCCCCC [heptane] + CCCOC(C)=O
[3], x2 = 0
Settings	mass density [kg/m3]
291.15 K	685.3
298.15 K	679.5
318.15 K	662.1
328.15 K	653.7

CCCCCC [hexane]
Settings	mass density, 291.15 K [kg/m3]	mass density, 298.15 K [kg/m3]	mass density, 318.15 K [kg/m3]	mass density, 328.15 K [kg/m3]	refractive index, 298.15 K	refractive index, 318.15 K	vapor or sublimation pressure, 341.89 K [kPa]
[1]	–	–	–	–	1.3723	1.3615	–
[2]	661.2	654.8	636.7	627.2	–	–	101.32

CCCCCC [hexane] + CCCOC(C)=O
[3], x2 = 0
Settings	mass density [kg/m3]
291.15 K	661.2
298.15 K	654.8
318.15 K	636.7
328.15 K	627.2

CCCCCCCCC [nonane]
Settings	mass density, 291.15 K [kg/m3]	mass density, 298.15 K [kg/m3]	mass density, 318.15 K [kg/m3]	mass density, 328.15 K [kg/m3]	refractive index, 298.15 K	refractive index, 318.15 K	vapor or sublimation pressure, 423.94 K [kPa]
[1]	–	–	–	–	1.4031	1.3938	–
[2]	719.2	713.9	698.1	690.2	–	–	101.32

CCCCCCCCC [nonane] + CCCOC(C)=O
[3], x2 = 0
Settings	mass density [kg/m3]
291.15 K	719.2
298.15 K	713.9
318.15 K	698.1
328.15 K	690.2

CCCCCCCC [octane]
Settings	mass density, 291.15 K [kg/m3]	mass density, 298.15 K [kg/m3]	mass density, 318.15 K [kg/m3]	mass density, 328.15 K [kg/m3]	refractive index, 298.15 K	refractive index, 318.15 K	vapor or sublimation pressure, 398.85 K [kPa]
[1]	–	–	–	–	1.3952	1.3855	–
[2]	704.1	698.6	682.2	674.1	–	–	101.32

CCCCCCCC [octane] + CCCOC(C)=O
[3], x2 = 0
Settings	mass density [kg/m3]
291.15 K	704.1
298.15 K	698.6
318.15 K	682.2
328.15 K	674.1

CCCCC [pentane]
Settings	mass density, 291.15 K [kg/m3]	mass density, 298.15 K [kg/m3]	refractive index, 298.15 K	vapor or sublimation pressure, 309.24 K [kPa]
[1]	–	–	1.3545	–
[2]	628.2	621.4	–	101.32

CCCCC [pentane] + CCCOC(C)=O
[4]
Settings	excess molar enthalpy [kJ/mol]
x2 = 0.0667	0.224
x2 = 0.1334	0.406
x2 = 0.2047	0.617
x2 = 0.2753	0.78
x2 = 0.3414	0.914
x2 = 0.4028	0.988
x2 = 0.461	1.026
x2 = 0.5088	1.031
x2 = 0.5257	1.025
x2 = 0.5824	0.973
x2 = 0.6434	0.896
x2 = 0.7089	0.787
x2 = 0.7812	0.636
x2 = 0.8537	0.446
x2 = 0.9242	0.249

mass density [kg/m3], [3]
Settings	291.15 K	298.15 K
x2 = 0	628.2	621.4
x2 = 0.0101	–	623.7
x2 = 0.0121	631.2	–
x2 = 0.0346	–	629.8
x2 = 0.0427	638.8	–
x2 = 0.0754	–	640
x2 = 0.078	647.7	–
x2 = 0.1377	–	655.9
x2 = 0.1417	664	–
x2 = 0.1977	–	671.4
x2 = 0.2048	680.3	–
x2 = 0.2734	698.2	–
x2 = 0.283	–	693.6
x2 = 0.3338	714.1	–
x2 = 0.3439	–	709.7
x2 = 0.3934	729.8	–
x2 = 0.4072	–	726.4
x2 = 0.4636	748.4	–
x2 = 0.4881	–	747.7
x2 = 0.5218	–	756.5
x2 = 0.5224	763.9	–
x2 = 0.5876	781.1	–
x2 = 0.5968	–	776.4
x2 = 0.6565	799.3	792.1
x2 = 0.7085	–	805.9
x2 = 0.7136	814.4	–
x2 = 0.7697	829.2	–
x2 = 0.8277	844.6	–
x2 = 0.8437	–	841.6
x2 = 0.8911	861.3	–
x2 = 0.9205	–	861.8
x2 = 0.923	869.7	–

CCCOC(C)=O [propyl ethanoate]
Settings	mass density [kg/m3]	refractive index	vapor or sublimation pressure [kPa]
[1], 298.15 K	–	1.3818	–
[1], 318.15 K	–	1.372	–
[2], 291.15 K	889.6	–	–
[2], 298.15 K	882.5	–	–
[2], 318.15 K	859.8	–	–
[2], 318.35 K	–	–	12.14
[2], 322.19 K	–	–	14.43
[2], 325.87 K	–	–	17.04
[2], 328.15 K	848.3	–	–
[2], 328.95 K	–	–	19.43
[2], 331.59 K	–	–	21.77
[2], 334.22 K	–	–	24.29
[2], 336.6 K	–	–	26.79
[2], 338.75 K	–	–	29.12
[2], 340.72 K	–	–	31.53
[2], 342.66 K	–	–	33.96
[2], 344.52 K	–	–	36.46
[2], 346.15 K	–	–	38.78
[2], 347.73 K	–	–	41.14
[2], 349.35 K	–	–	43.69
[2], 350.81 K	–	–	46.08
[2], 352.19 K	–	–	48.41
[2], 353.57 K	–	–	50.84
[2], 354.78 K	–	–	53.11
[2], 356.03 K	–	–	55.48
[2], 357.29 K	–	–	57.96
[2], 358.41 K	–	–	60.24
[2], 359.52 K	–	–	62.59
[2], 360.63 K	–	–	65
[2], 361.71 K	–	–	67.41
[2], 362.73 K	–	–	69.74
[2], 363.81 K	–	–	72.28
[2], 364.84 K	–	–	74.8
[2], 365.86 K	–	–	77.35
[2], 366.81 K	–	–	79.8
[2], 367.7 K	–	–	82.11
[2], 368.62 K	–	–	84.58
[2], 369.51 K	–	–	87.01
[2], 370.41 K	–	–	89.57
[2], 371.18 K	–	–	91.8
[2], 371.99 K	–	–	94.17
[2], 372.78 K	–	–	96.55
[2], 373.55 K	–	–	98.87
[2], 373.97 K	–	–	100.18
[2], 374.34 K	–	–	101.32
[2], 374.52 K	–	–	101.32
[2], 375.1 K	–	–	103.76
[2], 375.78 K	–	–	106.19
[2], 376.51 K	–	–	108.56
[2], 377.29 K	–	–	111.14
[2], 377.98 K	–	–	113.47
[2], 378.69 K	–	–	115.96
[2], 379.36 K	–	–	118.3
[2], 380.04 K	–	–	120.71
[2], 380.74 K	–	–	123.19
[2], 381.41 K	–	–	125.61
[2], 382.06 K	–	–	128.01
[2], 382.71 K	–	–	130.42
[2], 383.34 K	–	–	132.85
[2], 384.01 K	–	–	135.42
[2], 384.55 K	–	–	137.67
[2], 385.18 K	–	–	140.04
[2], 385.79 K	–	–	142.47
[2], 386.36 K	–	–	144.8
[2], 386.9 K	–	–	147.09
[2], 387.49 K	–	–	149.51
[2], 388.06 K	–	–	151.96
[2], 388.63 K	–	–	154.37
[2], 389.16 K	–	–	156.68
[2], 389.68 K	–	–	158.99
[2], 390.18 K	–	–	161.23
[2], 390.68 K	–	–	163.46
[2], 391.22 K	–	–	165.89
[2], 391.7 K	–	–	168.13
[2], 392.24 K	–	–	170.62
[2], 392.73 K	–	–	172.98
[2], 393.23 K	–	–	175.35
[2], 393.71 K	–	–	177.64
[2], 394.16 K	–	–	180.01
[2], 394.66 K	–	–	182.44
[2], 395.17 K	–	–	185.03
[2], 395.67 K	–	–	187.59
[2], 396.16 K	–	–	190.1
[2], 396.69 K	–	–	192.76

CCCOC(C)=O [propyl ethanoate] + CCCCC
[3], x1 = 1
Settings	mass density [kg/m3]
291.15 K	889.6
298.15 K	882.5
